One experiment concerns HIV. Particulars: R. Nagorny et al., AIDS 1993; cited from earlier work.
For experiment [1], the system named is Staphylococcus aureus UC-76. In words: Antibacterial activity, microtitration dilution method. The experiment is classed as cell-based. Particulars: UC76, read-out: Antibacterial Activity, minimum inhibitory concentration (MIC). The source says:
(§1) The compounds of the invention display antibacterial activity when tested by the microtitration dilution method as described in Heifetz, et al., Antimicr. Agents. & Chemoth. 6:124 (1974) which is incorporated herein by reference.
(§2) By use of the above referenced method, the following minimum inhibitory concentration values (MICs in μg/mL) were obtained for representative compounds of the invention vs. clinically relevant gram positive pathogens which have become highly resistant to conventional therapy in recent years.

In experiment [2] the test system is Streptococcus pyogenes C203. The description is as above. The experiment is classed as cell-based. As to conditions: read-out: Antibacterial Activity, minimum inhibitory concentration (MIC).
Excerpt: as §1, §2

Experiment [3] deals with Streptococcus pneumonia 5V-1. The description is as above. Particulars: Streptococcus pneumoniae, 5V1, read-out: Antibacterial Activity, minimum inhibitory concentration (MIC). The experiment is classed as cell-based.
Excerpt: as §1, §2

Experiment [4] deals with Enterococcus foecalis MGH2. The description is as above. The experiment is classed as cell-based. As to conditions: read-out: Antibacterial Activity, minimum inhibitory concentration (MIC).
Excerpt: as §1, §2

The subject of experiment [5] is Staphylococcus aureus H228. The experiment is described as above. The experiment is classed as cell-based. Particulars: read-out: Antibacterial Activity, minimum inhibitory concentration (MIC).
Excerpt: as §1, §2

The target in another experiment is T1, HIV-I Protease (Human immunodeficiency virus type 1 group M subtype B, UniProt P04585).
T1 construct: HIV-I Protease: The enzyme is obtained from Bachem Bioscience Inc; purchased Bachem Bioscience Inc
In words: HIV Protease Inhibition (undecapeptide substrate hydrolysis, HPLC). The experiment is classed as biochemical. Particulars: averaged; substrate 40 μM, 37° C., pH 4.7 DTT buffer, 5 minutes; read-out: 50% Inhibition Concentration (Averaged). On the procedure: DTT Buffer: 1.0 mM dithiothreitol (DTT) was prepared fresh daily in 0.1% polyethylene glycol (mw 8000) 80 mM NaOAc, 160 mM NaCl, 1.0 mM EDTA, and brought to pH 4.7 with HCl.
HIV-I Protease: The enzyme is obtained from Bachem Bioscience Inc. The undiluted enzyme is thawed from -80° C. and diluted 50-fold with DTT buffer. The solution is always kept at 0° C. on ice water and used in the experiment within 20 minutes after thawing.
Enzyme Substrate: Substrate III from Bachem Bioscience Inc. is the undecapeptide H-His-Lys-Ala-Arg-Val-Leu-p-Nitrophenylalanine-Glu-Ala-Norleucine-Ser-NH2 (>97% purity). A 200 μM stock solution in DTT buffer is prepared and stored on ice. Substrate solution is prepared fresh daily.
Test Compound: 10 mM inhibitor (I) in dimethyl sulfoxide (DMSO) is diluted to 200 μM with DTT buffer. From the 200 μM stock solution is made a 10 μM stock solution with 2% DMSO in DTT buffer. The two inhibitor solutions are used to make final [I]=100, 50, 20, 10, 5, 2, 1, 0.5 and 0 μM with 2% DMSO in DTT buffer in each reaction well (total inhibitor volume of 50 μl).
To each reaction well is added 20 μl of substrate (final concentration of 40 μM), 50 μl of inhibitor (at a concentration such that final dilution will produce the test concentration) and 20 μl of DTT buffer. The reaction plate (96 wells) is incubated at 37° C. for at least 5 minutes.
10 μl of the diluted protease is added to the reaction well while the reaction plate is shaking. Once shaken for 10 seconds, the plate is returned to the heating block at 37° C. (Final reaction volume=100 μl.)
The reaction is incubated for 5 minutes at 37° C. The reaction is stopped by placing the reaction plate on the shaker and adding 20 μl of 10% trifluoroacetic acid (TFA) and shaking for 10 seconds. The amount of proteolysis is then determined by separation of noncleaved substrate and two cleaved products with reverse-phase HPLC, while measuring absorbance at 220 nm to determine the relative peak areas of the three components. The relative peak areas are used to calculate % conversion to product as a function of inhibitor concentration. The data is plotted as % Control (the ratio of % conversion in the presence and absence of inhibitor×100) versus inhibitor concentration and fit with the equation Y=100/1+(X/IC50)^A, where IC50 is the inhibitor concentration at 50% inhibition and A is the slope of the inhibition curve.

Converted amounts (≈) assume the structure as drawn.

Consider `CC(=O)CC(c1ccccc1)c1c(O)c2ccccc2oc1=O` (stereo not drawn) [Warfarin, 3-(α-acetonylbenzyl)-4-hydroxycoumarin], for which, in the experiment on HIV, the “inhibition of HIV infection (in words)” value is “inhibiting cell-free and cell-mediated HIV infection”.

Regarding `CC(C)c1ccccc1Sc1c(O)cc(-c2ccc(OCc3cccnc3)cc2)oc1=O` [Example 172, 4-Hydroxy-3-[(2-isopropylphenyl)thio]-6-[4-(pyridin-3-ylmethoxy)phenyl]-2H-pyran-2-one], the MIC in experiment [1] was found to be 50 µg/mL (≈ 112 µM); in experiment [2], 50 µg/mL (≈ 112 µM); in experiment [3], 50 µg/mL (≈ 112 µM); in experiment [4], 100 µg/mL (≈ 224 µM); in experiment [5] it was 50 µg/mL (≈ 112 µM).

For the compound `CC(C)c1ccccc1Sc1c(O)cc(-c2cccc(-c3ccccc3)c2)oc1=O` [Example 167, 6-(1,1'-Biphen-3-yl)-4-hydroxy-3-[(2-isopropylphenyl)thio]-2H-pyran-2-one], the MIC in experiment [1] was determined as 6.2 µg/mL (≈ 15 µM); in experiment [2], 6.2 µg/mL (≈ 15 µM); in experiment [3], 6.2 µg/mL (≈ 15 µM); in experiment [4], 12.5 µg/mL (≈ 30.2 µM); in experiment [5], 6.2 µg/mL (≈ 15 µM).

As for `O=c1oc(-c2ccc(OCCO)cc2)cc(O)c1SCCc1ccccc1` [Example 160, 4-Hydroxy-6-[4-(2-hydroxyethoxy)phenyl]-3-[(2-phenylethyl)thio]-2H-pyran-2-one], the IC50 at HIV-I Protease turned out to be 360 nM.

For `Cc1cc(C)cc(-c2cc(O)c(Sc3ccccc3C(C)C)c(=O)o2)c1` [Example 169, 6-(3,5-Dimethylphenyl)-4-hydroxy-3-[(2-isopropylphenyl)-thio]-2H-pyran-2-one], on HIV-I Protease, the IC50 is 15 nM.

For `O=c1oc(-c2ccccc2Cl)cc(O)c1SCc1ccccc1` [Example 2, 6-(2-chlorophenyl)-4-hydroxy-3-[(phenylmethyl)thio]-2H-pyran-2-one], the MIC was 12.5 µg/mL (≈ 36.3 µM) in experiment [1]; 12.5 µg/mL (≈ 36.3 µM) in experiment [2]; 12.5 µg/mL (≈ 36.3 µM) in experiment [3]; 25 µg/mL (≈ 72.5 µM) in experiment [4]; 12.5 µg/mL (≈ 36.3 µM) in experiment [5].

With `CC(C)c1ccccc1Sc1c(O)cc(-c2cc(Cl)cc(Cl)c2)oc1=O` [Example 193, 6-(3,5-Dichlorophenyl)-4-hydroxy-3-[(2-isopropylphenyl)thio]-2H-pyran-2-one], the IC50 on HIV-I Protease is 26 nM.

Take `CCC(=O)Oc1cc(-c2ccccc2)oc(=O)c1SCc1ccccc1` [Example 49, 2-Oxo-6-phenyl-3-[ (phenylmethyl)thio]-2H-pyran-4-ylpropanoic acid ester]: the IC50 on HIV-I Protease is 1600 nM.

Regarding `O=c1oc(-c2ccc(OCc3ccccc3)cc2)cc(O)c1SCCc1ccccc1` [Example 29, 4-Hydroxy-3-[(2-phenylethyl)thio]-6-[4-(phenylmethoxy)phenyl]-2H-pyran-2-one], the MIC was found to be 25 µg/mL (≈ 58.1 µM) in experiment [1]; 25 µg/mL (≈ 58.1 µM) in experiment [2]; 25 µg/mL (≈ 58.1 µM) in experiment [3]; 50 µg/mL (≈ 116 µM) in experiment [4]; 25 µg/mL (≈ 58.1 µM) in experiment [5].

Source of the values: patent publication US5808062A, “Pyrone derivatives as protease inhibitors and antiviral agents” (Warner-Lambert Company, priority 1994, dated 1998).
